Assay results published in BigSolDB 2.1.

CC(CCC(=O)O)(c1ccc(O)cc1)c1ccc(O)cc1
Details | solubility (mole fraction)
in acetone, 288.15 K | 0.125
in acetone, 291.15 K | 0.127
in acetone, 294.15 K | 0.13
in acetone, 297.15 K | 0.134
in acetone, 300.15 K | 0.137
in acetone, 303.15 K | 0.14
in acetone, 306.15 K | 0.143
in acetone, 309.15 K | 0.146
in acetone, 312.15 K | 0.15
in acetone, 315.15 K | 0.153
in acetone, 318.15 K | 0.157
in acetonitrile, 288.15 K | 0.00804
in acetonitrile, 291.15 K | 0.00871
in acetonitrile, 294.15 K | 0.00973
in acetonitrile, 297.15 K | 0.0106
in acetonitrile, 300.15 K | 0.0116
in acetonitrile, 303.15 K | 0.013
in acetonitrile, 306.15 K | 0.0144
in acetonitrile, 309.15 K | 0.0162
in acetonitrile, 312.15 K | 0.0181
in acetonitrile, 315.15 K | 0.0208
in acetonitrile, 318.15 K | 0.0238
in ethanol, 288.15 K | 0.0989
in ethanol, 291.15 K | 0.103
in ethanol, 294.15 K | 0.107
in ethanol, 297.15 K | 0.11
in ethanol, 300.15 K | 0.114
in ethanol, 303.15 K | 0.118
in ethanol, 306.15 K | 0.123
in ethanol, 309.15 K | 0.129
in ethanol, 312.15 K | 0.136
in ethanol, 315.15 K | 0.142
in ethanol, 318.15 K | 0.148
in ethyl acetate, 288.15 K | 0.0498
in ethyl acetate, 291.15 K | 0.0509
in ethyl acetate, 294.15 K | 0.052
in ethyl acetate, 297.15 K | 0.0533
in ethyl acetate, 300.15 K | 0.0553
in ethyl acetate, 303.15 K | 0.0576
in ethyl acetate, 306.15 K | 0.0604
in ethyl acetate, 309.15 K | 0.0637
in ethyl acetate, 312.15 K | 0.0667
in ethyl acetate, 315.15 K | 0.0696
in ethyl acetate, 318.15 K | 0.0727
in ethyl formate, 288.15 K | 0.0113
in ethyl formate, 291.15 K | 0.0116
in ethyl formate, 294.15 K | 0.012
in ethyl formate, 297.15 K | 0.0127
in ethyl formate, 300.15 K | 0.0136
in ethyl formate, 303.15 K | 0.0146
in ethyl formate, 306.15 K | 0.0155
in ethyl formate, 309.15 K | 0.0166
in ethyl formate, 312.15 K | 0.0183
in ethyl formate, 315.15 K | 0.0202
in ethyl formate, 318.15 K | 0.0221
in isopropanol, 288.15 K | 0.063
in isopropanol, 291.15 K | 0.0631
in isopropanol, 294.15 K | 0.0634
in isopropanol, 297.15 K | 0.0637
in isopropanol, 300.15 K | 0.0651
in isopropanol, 303.15 K | 0.0665
in isopropanol, 306.15 K | 0.0687
in isopropanol, 309.15 K | 0.0718
in isopropanol, 312.15 K | 0.077
in isopropanol, 315.15 K | 0.0829
in isopropanol, 318.15 K | 0.0914
in methanol, 288.15 K | 0.096
in methanol, 291.15 K | 0.0983
in methanol, 294.15 K | 0.101
in methanol, 297.15 K | 0.104
in methanol, 300.15 K | 0.106
in methanol, 303.15 K | 0.11
in methanol, 306.15 K | 0.114
in methanol, 309.15 K | 0.119
in methanol, 312.15 K | 0.123
in methanol, 315.15 K | 0.127
in methanol, 318.15 K | 0.131
in methyl acetate, 288.15 K | 0.0453
in methyl acetate, 291.15 K | 0.0477
in methyl acetate, 294.15 K | 0.0497
in methyl acetate, 297.15 K | 0.0526
in methyl acetate, 300.15 K | 0.0559
in methyl acetate, 303.15 K | 0.0594
in methyl acetate, 306.15 K | 0.063
in methyl acetate, 309.15 K | 0.0668
in methyl acetate, 312.15 K | 0.0713
in methyl acetate, 315.15 K | 0.0775
in methyl acetate, 318.15 K | 0.085
in n-butanol, 288.15 K | 0.0712
in n-butanol, 291.15 K | 0.0763
in n-butanol, 294.15 K | 0.0814
in n-butanol, 297.15 K | 0.0867
in n-butanol, 300.15 K | 0.0919
in n-butanol, 303.15 K | 0.0971
in n-butanol, 306.15 K | 0.102
in n-butanol, 309.15 K | 0.107
in n-butanol, 312.15 K | 0.112
in n-butanol, 315.15 K | 0.116
in n-butanol, 318.15 K | 0.12
in n-butyl acetate, 288.15 K | 0.0117
in n-butyl acetate, 291.15 K | 0.0143
in n-butyl acetate, 294.15 K | 0.0169
in n-butyl acetate, 297.15 K | 0.0199
in n-butyl acetate, 300.15 K | 0.0227
in n-butyl acetate, 303.15 K | 0.0258
in n-butyl acetate, 306.15 K | 0.029
in n-butyl acetate, 309.15 K | 0.0325
in n-butyl acetate, 312.15 K | 0.0356
in n-butyl acetate, 315.15 K | 0.039
in n-butyl acetate, 318.15 K | 0.0428
in n-propanol, 288.15 K | 0.0352
in n-propanol, 291.15 K | 0.0384
in n-propanol, 294.15 K | 0.0416
in n-propanol, 297.15 K | 0.046
in n-propanol, 300.15 K | 0.0502
in n-propanol, 303.15 K | 0.0541
in n-propanol, 306.15 K | 0.0588
in n-propanol, 309.15 K | 0.0631
in n-propanol, 312.15 K | 0.0671
in n-propanol, 315.15 K | 0.0732
in n-propanol, 318.15 K | 0.0803
in n-propyl acetate, 288.15 K | 0.0291
in n-propyl acetate, 291.15 K | 0.0298
in n-propyl acetate, 294.15 K | 0.0309
in n-propyl acetate, 297.15 K | 0.032
in n-propyl acetate, 300.15 K | 0.0336
in n-propyl acetate, 303.15 K | 0.0358
in n-propyl acetate, 306.15 K | 0.0379
in n-propyl acetate, 309.15 K | 0.0403
in n-propyl acetate, 312.15 K | 0.0433
in n-propyl acetate, 315.15 K | 0.0472
in n-propyl acetate, 318.15 K | 0.0507
in sec-butanol, 288.15 K | 0.0823
in sec-butanol, 291.15 K | 0.0876
in sec-butanol, 294.15 K | 0.0926
in sec-butanol, 297.15 K | 0.0978
in sec-butanol, 300.15 K | 0.103
in sec-butanol, 303.15 K | 0.11
in sec-butanol, 306.15 K | 0.117
in sec-butanol, 309.15 K | 0.124
in sec-butanol, 312.15 K | 0.129
in sec-butanol, 315.15 K | 0.135
in sec-butanol, 318.15 K | 0.14
